Measured values taken from ChEMBL document CHEMBL1201862, “PubChem BioAssay data set” (2004).
Active and inactive are the calls of the source.

Assays:
[1] = biological target: Major prion protein (Homo sapiens, UniProt P04156); type: functional, cell-based
[2] = cells
[3] = test system: A549; experiment: A549 cell toxicity, dose response, cytotoxicity control, plate reader, cherry-pick samples (AID 687028); type: functional, cell-based; conditions: Homo sapiens
[4] = HEK293 cell cytotoxicity, dose response, cytotoxicity control, cherry-picks, set 5 (AID 1053117); type: functional, cell-based
[5] = inhibitors of fibronectin matrix deposition, dose response, AH1F cells, Alexa488-FN fluorescence, cherry-picks (AID 1035475); type: functional, cell-based
[6] = biological target: Tyrosyl-DNA phosphodiesterase 2 (Homo sapiens, UniProt O95551); experiment: human TDP2 enzyme inhibitors, dose response, biochemical, epi absorbance, IC50 (AID 743297)
[7] = biological target: Histone-lysine N-methyltransferase NSD2 (Homo sapiens, UniProt O96028); type: biochemical
[8] = HEK293T cytotoxicity, dose response, cytotoxicity control for miR-122 modulator project, cell-based, inhibitor set, cherry-pick, set 2 (AID 720697); type: functional
[9] = HepG2 cell cytotoxicity, dose response, cytotoxicity control, cherry-picks, set 5 (AID 1053118); type: functional, cell-based
[10] = HepG2 cell cytotoxicity, dose response, cytotoxicity control, cherry-picked samples (AID 1159577); type: functional, cell-based
[11] = P. falciparum Dd2 growth inhibitors, dose response, SYBR Green, cherry-picked samples (AID 1159567); type: functional, cell-based
[12] = HEK293 Cytotoxicity Assay Measured in Cell-Based System Using Plate Reader - 7071-01_Inhibitor_Dose_CherryPick_Activity_Set2.; type: functional
[13] = test system: HEK293; experiment: HEK293T cell cytotoxicity, dose response, cytotoxicity control, ATP luminescence, cherry-pick samples (AID 687005); type: functional, cell-based; conditions: Homo sapiens;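 note: cells exposed to compound for 48 hours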
[14] = test system: HeLa; experiment: HeLa cell cytotoxicity, dose response, cytotoxicity control, ATP luminescence, cherry-pick samples (AID 687004); type: functional, cell-based; conditions: Homo sapiens
[15] = miR-122 activators in hepatoma reporter cells, dose response, cell-based, Huh7 psiCHECK-miR122, Renilla luciferase, cherry-picked (AID 651956); type: functional;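 note: huh7 hepatoma cells stably carrying a psiCHECK-2 miR-122 sensor plasmid; renilla luciferase signal reporting endogenous miR-122 activity after 48 h compound exposure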
[16] = HEK293T cytotoxicity, dose response, cytotoxicity control for miR-122 modulator project, cell-based, activator set, cherry-pick (AID 720690); type: functional;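 note: HEK293T human cells scored for general mammalian cytotoxicity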
[17] = biological target: T1, Beta-lactamase (Pseudomonas aeruginosa, UniProt Q79MP6); experiment: IMP-1 metallo-beta-lactamase inhibitors, dose response, selectivity assay for VIM-2 inhibitor project, biochemical, epi-absorbance (AID 1920)
[18] = biological target: Beta-lactamase (Salmonella choleraesuis (strain SC-B67), UniProt Q5J463); experiment: Epi-absorbance-based counterscreen for selective VIM-2 inhibitors: dose response biochemical high throughput screening assay to identify inhibitors of TEM-1 serine-beta-lactamase.
[19] = biological target: T1, Beta-lactamase; experiment: […] counterscreen for selective VIM-2 inhibitors: dose response biochemical high throughput screening assay to identify inhibitors of IMP-1 metallo-beta-lactamase.
[20] = biological target: T2, Rac GTPase-activating protein 1 (Homo sapiens, UniProt Q9H0H5); experiment: MgcRacGAP GTPase-activating activity inhibitors, confirmation, biochemical, ADP Hunter fluorescence, primary and confirmatory (AID 624330); type: functional
T2 sequence (Q9H0H5 whole entry): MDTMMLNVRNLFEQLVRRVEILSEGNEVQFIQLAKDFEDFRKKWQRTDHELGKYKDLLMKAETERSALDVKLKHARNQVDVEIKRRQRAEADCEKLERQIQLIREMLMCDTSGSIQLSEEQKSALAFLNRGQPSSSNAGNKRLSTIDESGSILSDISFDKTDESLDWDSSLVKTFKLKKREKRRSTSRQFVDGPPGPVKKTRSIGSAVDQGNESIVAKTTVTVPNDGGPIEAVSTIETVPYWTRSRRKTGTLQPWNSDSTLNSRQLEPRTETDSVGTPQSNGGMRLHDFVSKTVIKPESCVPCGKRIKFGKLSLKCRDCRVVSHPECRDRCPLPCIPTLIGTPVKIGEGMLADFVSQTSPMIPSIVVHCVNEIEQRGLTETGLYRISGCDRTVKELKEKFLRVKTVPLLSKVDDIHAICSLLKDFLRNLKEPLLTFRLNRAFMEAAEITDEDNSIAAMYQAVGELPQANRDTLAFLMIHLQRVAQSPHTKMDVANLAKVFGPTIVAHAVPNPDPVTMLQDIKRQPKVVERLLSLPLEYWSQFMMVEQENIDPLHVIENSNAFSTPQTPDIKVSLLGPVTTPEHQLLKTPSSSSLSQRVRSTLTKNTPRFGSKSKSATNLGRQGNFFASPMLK

[21] = HeLa cell cytotoxicity, dose response, cytotoxicity control for MgcRacGAP inhibitor project (AID 624300); type: functional
[22] = biological target: Genome polyprotein (dengue virus type 2, UniProt P29990); experiment: Dengue-2 NS5 methyltransferase inhibitors, primary screen, biochemical, confirmation dose response (AID 588689); type: functional
[23] = biological target: Eukaryotic translation initiation factor 4H (Homo sapiens, UniProt Q15056); experiment: human eIF4H binding inhibitors, primary screen, translation initiation inhibitor project, biochemical, uHTS, fluorescence polarization (AID 2012)
[24] = biological target: Polyadenylate-binding protein 1 (Homo sapiens, UniProt P11940); experiment: PABP poly(A) RNA binding inhibitors, primary screen, biochemical, fluorescence polarization, uHTS (AID 2014)
[25] = biological target: T3, Protein skinhead-1 (Caenorhabditis elegans, UniProt P34707); type: functional
T3 sequence (P34707 whole entry): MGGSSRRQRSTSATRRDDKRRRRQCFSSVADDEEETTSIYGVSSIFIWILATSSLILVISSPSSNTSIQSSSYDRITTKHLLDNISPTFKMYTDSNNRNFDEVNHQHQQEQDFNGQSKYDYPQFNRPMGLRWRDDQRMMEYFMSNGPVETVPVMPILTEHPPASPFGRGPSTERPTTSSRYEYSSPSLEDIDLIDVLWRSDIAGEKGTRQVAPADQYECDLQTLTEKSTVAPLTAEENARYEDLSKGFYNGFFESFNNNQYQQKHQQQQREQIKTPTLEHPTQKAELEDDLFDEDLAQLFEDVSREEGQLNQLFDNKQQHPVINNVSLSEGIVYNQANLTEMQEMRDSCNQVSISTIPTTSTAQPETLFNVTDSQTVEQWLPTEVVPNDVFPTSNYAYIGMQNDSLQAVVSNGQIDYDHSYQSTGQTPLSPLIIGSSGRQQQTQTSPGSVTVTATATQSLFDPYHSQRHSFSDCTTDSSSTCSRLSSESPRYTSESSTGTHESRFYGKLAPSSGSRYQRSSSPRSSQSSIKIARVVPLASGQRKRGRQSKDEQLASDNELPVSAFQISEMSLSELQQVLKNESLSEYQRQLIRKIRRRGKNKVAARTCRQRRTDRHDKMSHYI

[26] = biological target: Nonstructural protein 1 (Influenza A virus, UniProt Q194T2); type: functional, Influenza A virus (A/California/07/2009(H1N1))
[27] = biological target: Matrix metalloproteinase-14 (Homo sapiens, UniProt P50281); experiment: Dose Response confirmation of uHTS hits for a small molecule inhibitors of MT1-MMP activation in a fluorescence assay set 1.; type: functional
[28] = inhibitors of LMP1-driven NF-kB reporter, dose response, cell-based, EBV LMP1, luciferase, dry powder, set 2 (AID 624361); type: functional
[29] = inhibitors of TNFa-stimulated NF-kB luciferase reporter, dose response, selectivity assay for EBV LMP1 NF-kB inhibitor project, HEK293 LMP1 reporter cells, dry powder, set 2 (AID 624369); type: functional
[30] = HepG2 cell cytotoxicity, dose response, cytotoxicity control, CellTiter-Glo luminescence, cherry-pick, set 2 (AID 743395); type: functional
[31] = IOSE-T80 ovarian epithelial cell cytotoxicity, dose response, cytotoxicity control for PAX8 inhibitor project, plate reader, dry powder samples (AID 743045); type: functional, cell-based
[32] = biological target: Paired box protein Pax-8 (Homo sapiens, UniProt Q06710); experiment: inhibitors of PAX8-driven TPO luciferase reporter, dose response, RMG-I cells, cherry-pick (AID 687027); type: functional, cell-based;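 note: luciferase reporter driven by Pax8 target thyroperoxidase promoter measured by SteadyGlo luminescence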
[33] = inhibitors of PGC1a acetylation in cells, dose response, cell-based, cherry-picked samples (AID 720514); type: functional;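 note: potency may reflect raised or lowered acetylation signal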
[34] = IGROV1 ovarian cancer cell cytotoxicity, dose response, PAX8 inhibitor project, plate reader, dry powder samples (AID 743043); type: functional, cell-based; conditions: IGROV-1
[35] = NIH:OVCAR-3 ovarian cancer cell cytotoxicity, dose response, PAX8 inhibitor project, plate reader, dry powder samples (AID 743044); type: functional, cell-based
[36] = cytotoxicity in OVCAR8 ovarian cancer cells, dose response, PAX8 project, cell-based, plate reader, dry powder samples (AID 743197); type: functional; conditions: OVCAR-8
[37] = non-specific cell cytotoxicity, dose response, cytotoxicity control for PAX8 inhibitor project, plate reader, dry powder samples (AID 743021); type: functional, cell-based
[38] = biological target: Protein Wnt-3a (Mus musculus, UniProt P27467); experiment: SAR analysis of small molecule antagonists of Gli-SUFU in a Wnt3a luminescent reporter assay.; type: functional

Fc1cccc2sc(Nc3nc4c(F)cccc4s3)nc12
IC50 [1]: 8.31 µM (active)
IC50 [2]: > 138 µM (inactive)

C[C@H](CO)N1C[C@H](C)[C@@H](CN(C)C(=O)Nc2ccc(C(F)(F)F)cc2)OCCCC[C@H](C)Oc2ccc(NC(=O)C3CCCCC3)cc2C1=O
AC50 [3]: 30.5 µM (active)

CN1c2ccc(-c3ccccc3)cc2[C@H]2[C@H](CCN2C(=O)CN2CCOCC2)[C@@H]1CO
AC50 [4]: > 52 µM (inactive)
AC50 [5]: > 70 µM (inactive)

O=C1C=C(O)c2nc(O)ccc2C1=O
IC50 [6]: 80 µM (inactive)
AC50 [7]: 13.1 µM (active)

CN(C)C(=O)C[C@@H]1CC[C@@H]2[C@@H](COc3ccc(NC(=O)C4CC4)cc3C(=O)N2C)O1
AC50 [8]: 9.22 µM (active)

CO[C@@H]1CN(C)C(=O)c2ccc(NC(=O)c3ccc(-c4ccccc4)cc3)cc2OC[C@@H](C)NC[C@@H]1C
AC50 [9]: > 52 µM (inactive)
AC50 [10]: 11.9 µM (active)
AC50 [11]: 3.9 µM (active)

C[C@@H]1CN([C@@H](C)CO)S(=O)(=O)c2ccc(-c3ccccc3)cc2O[C@H]1CN(C)C(=O)C1CCCCC1
AC50 [12]: 15.4 µM (active)
AC50 [13]: 15.4 µM (active)
AC50 [14]: > 52 µM (inactive)

CCC(=O)N(C)C[C@H]1Oc2cc(C#Cc3ccccc3)ccc2S(=O)(=O)N([C@H](C)CO)C[C@H]1C
AC50 [15]: 10.1 µM (active)
AC50 [16]: 30.6 µM (active)

CCCCc1cc(=O)oc2c3c(cc(OCC(=O)N4CCC[C@H]4C(=O)O)c12)OC(C)(C)CC3
IC50 [17]: > 59.6 µM (inactive)
IC50 [18]: > 59.6 µM (inactive)
IC50 [19]: > 59.6 µM (inactive)

CC1=C/C(=C(/c2cc(C)c(O)c(Br)c2)c2ccccc2S(=O)(=O)O)C=C(Br)C1=O
IC50 [20]: 63.5 µM (active)
CC50 [21]: 100 µM (active)
IC50 [22]: 38 µM (active)
IC50 [23]: 8.28 µM (active)
IC50 [24]: 6.81 µM (active)
IC50 [25]: 34.3 µM (active)
IC50 [26]: 16.3 µM (active)
IC50 [27]: 18.5 µM (active)

Cc1cc(C(=O)Nc2ccc3c(c2)C(=O)N(C)[C@H]2CC[C@H](CC(=O)NCc4ccc(-c5ccccc5)cc4)O[C@H]2CO3)no1
AbsAC35 [28]: 37.95 µM
AbsAC35 [29]: 62.14 µM

COc1cc(NC(=O)c2csc(N)n2)cc(C(=O)Nc2cccc(C(F)(F)F)c2)c1.O=C(O)C(F)(F)F
AbsAC35_uM [30]: 51.31 µM

Cc1cccc(-c2ccc([C@H]3[C@@H]4CN(C(=O)Nc5ccc(C(F)(F)F)cc5)C[C@H]3N4)cc2)c1
AC50 [31]: 17 µM (active)
AC50 [32]: 8.8 µM (active)
AC50 [33]: 4.51 µM (active)
AC50 [34]: 33.2 µM (active)
AC50 [35]: 18.8 µM (active)
AC50 [10]: 9.26 µM (active)
AC50 [36]: 25.6 µM (active)
AC50 [11]: 3.28 µM (active)
AC50 [37]: 22.9 µM (active)

CN(C)c1cc(NC(=O)c2ccccc2F)ncn1
IC50 [38]: > 21.8 µM (inactive)
